# Article PMC5814047, “Peptidic inhibitors of insulin-degrading enzyme with potential for dermatological applications discovered via phage display” (PLoS ONE, 2018)
# Several values for one entry are separate records, joined by “and”; a condition that tells them apart may be missing. Equal values may be shown once. Bridge positions count the residues as written; N and C are the ends. Peptide text beside a SMILES is read from it.
# Key:
# [1] = tested on: primary murine skin fibroblasts; assay: Insulin degradation in primary murine skin fibroblasts (ELISA of conditioned medium); format: cell-based; settings: for Percent insulin remaining, Mean / Percent insulin remaining: P12-3A 100 uM, 100nM insulin added; for Percent insulin remaining, Mean: N 4; for Percent insulin remaining: conditioned medium, individual replicates
# Description: (§1) Insulin promotes wound healing and overall skin health by affecting a number of processes, including cell proliferation, cell migration, and the production and secretion of ECM components, particularly type I collagen. We therefore assessed the ability of P12-3A to influence these processes in cultured skin fibroblasts and keratinocytes. To that end, primary mouse skin fibroblasts were grown for 4 d in multiple concentrations of insulin in the presence or absence of P12-3A, and insulin concentration over time was monitored by ELISA. […] Finally, the effects of P12-3A on collagen production in were assessed at both the transcriptional and the posttranslational level in confluent monolayers of fibroblasts. After 4 d of treatment with P12-3A (100 μM), mRNA levels for the major form of collagen, alpha-1 type I collagen (COL1A1), were quantified by RT-PCR and found to be increased to ~2.6 times the levels of untreated cells (Fig 4C). To assess overall levels of collagen production and secretion, we quantified levels of hydroxyproline, a modified amino acid present almost exclusively in collagen proteins. […] Western blotting also confirmed that mature, cell-associated collagen levels were increased in the presence of P12-3A (Fig 4E).
# (§2) Fig 4 Effects of P12-3A on cultured skin cells. A, Insulin concentrations as a function of time in logarithmically growing primary murine skin fibroblasts in the absence or presence of P12-3A (100 μM). […] Data are mean ± SEM of 4 independent replications. *P<0.05, **P<0.01. B, Proliferation of cells in the absence or presence of P12-3A (100 μM). Data are mean ± SEM of 6 independent replications. […] C,D,E, P12-3A (100 μM) potentiates insulin-induced collagen production in skin fibroblasts. Collagen production was assessed by COL1A1 mRNA levels (C), levels of hydroxyproline secreted into the medium (D), and cell-associated mature alpha-1 type I collagen levels detected by Western blotting (E). Data are mean ± SD of 4 independent replications. *P<0.05, **P<0.01. […] Migration of HaCaT cells 48 h after induction of a scratch wound in the presence of the indicated quantities of insulin and/or P12-3A (100 μM). Data are mean ± SEM of 6 independent replications. *P<0.05, **P<0.01.
# (§3) IDE activity was quantified by monitoring the degradation of Mca-[…](Dnp) (FRET1, 5 μM), fluoresceinated and biotinylated amyloid ß-protein (FAßB; 500 nM) or recombinant human insulin (50 nM) in PBS supplemented with 0.05% BSA. FRET1 degradation was measured by changes in fluorescence (λex = 340 nm, λem = 420 nm); FAßB degradation was monitored by fluorescence polarization (λex = 488 nm, λem = 525 nm), as described; and insulin degradation was quantified by ELISA. In vitro activity assays incorporated recombinant human IDE (1 nM) purified from bacteria. For quantitation of insulin degradation in primary murine skin fibroblasts, cells (1 x 10^5/well) were plated in 96-well plates and maintained in DMEM supplemented with 10% fetal bovine serum (FBS), 2mM glutamine, penicillin and streptomycin. After addition of insulin (10 nM or 100 nM), samples of conditioned medium were removed daily and quickly frozen, then insulin levels were quantified in parallel by ELISA according to manufacturer’s recommendations (Crystal Chem, Downers Grove, IL, USA). Assessment of the activity of P12-3A against a variety of matrix-metalloproteases was conducted using the Matrix Metalloproteinase (MMP) Inhibitor Profiling Kit, Fluorometric RED (Enzo Life Sciences, Inc., Farmingdale, NY, USA) according to manufacturer’s recommendations using the broad-spectrum MMP inhibitor, NNGH, as a positive control.
# [2] = tested on: hydroxyproline secreted by primary murine skin fibroblasts; assay: Hydroxyproline secretion into medium; format: cell-based
# Description: as §1, §2
# For quantitation of hydroxyproline secretion by primary murine skin fibroblasts, cells (1 x 10^5/well) were plated in 24-well plates DMEM supplemented with 10% FBS, 2mM glutamine, penicillin, streptomycin and 100 nM insulin, in the absence or presence of 100 μM P12-3A. After incubation for 4 days, the conditioned medium was removed, centrifuged at 1000 x g for 10 min to remove cellular debris, and hydroxyproline levels were quantified using the Hydroxyproline Assay Kit according to manufacturer’s recommendations (Sigma-Aldrich, St. Louis, MO, USA).
# [3] = tested on: multiple matrix-metalloproteases (MMPs); assay: Matrix Metalloproteinase (MMP) Inhibitor Profiling Kit, Fluorometric RED; format: biochemical; set-up: % activity relative to DMSO-only controls, single runs / % activity relative to DMSO-only controls, Mean: concentration or dose not given beside the values; settings: for % activity relative to DMSO-only controls, single runs: each run mean of duplicates
# Description: as §3
# Supplementary file pone.0193101.s004.tif: S4 Fig Selectivity of P12-3A for IDE vis-à-vis other proteases. Activity of P12-3A (100 μM) against (A) multiple matrix-metalloproteases (MMPs) and (B) multiple peptidases of different protease classes. […] Data are mean ± SD, n = 8–16 per group. P<0.05 by 2-tailed Student’s t-test. […] See Materials and Methods for details. NEP, neprilysin; mCatD, murine cathepsin D; hCatD, human cathepsin D. (TIF) Click here for additional data file.
# 15 different proteases = assay: Selectivity against 15 different proteases (S4 Fig); format: biochemical; settings: P12-3A 100 μM
# Description: Taken together with the potency of all peptides against insulin (Table 1), we concluded that P12-3A represented the best inhibitor for further studies, and a highly purified, deliberately cyclized version (Fig 3A) was synthesized. […] Based on its potency, stability and selectivity for IDE, P12-3A was selected for use in downstream assays.
# as §3, with “Assessment of the activity of P12-3A against a variety of matrix-metalloproteases was conducted using the Matrix Metalloproteinase (MMP) Inhibitor Profiling Kit, Fluorometric RED (Enzo Life Sciences, Inc., Farmingdale, NY, USA) according to manufacturer’s recommendations using the broad-spectrum MMP inhibitor, NNGH, as a positive control.” left out
smiles,measurement,setting,value
CC(C)C[C@H](NC(=O)[C@H](CO)NC(=O)[C@@H](N)CCC(N)=O)C(=O)N1CCC[C@H]1C(=O)N[C@@H](Cc1c[nH]c2ccccc12)C(=O)N[C@H]1CSSC[C@@H](C(=O)N[C@H](C(=O)N[C@H](C(N)=O)[C@@H](C)O)C(C)C)NC(=O)[C@H](Cc2c[nH]cn2)NC(=O)[C@@H]2CCCN2C(=O)[C@H](Cc2ccc(O)cc2)NC1=O [P12-3A] (H-QSLPWCYPHCVT-NH2; disulfide 6-10 (inferred)),insulin levels over time in cells,"[1]; 100 μM P12-3A, 10 nM insulin, up to day 4, logarithmically growing cells",remain constant
same,"Percent insulin remaining, Mean",[1]; t 0 d,100.0%
same,Percent insulin remaining,[1]; t 0 d,85.1403% and 114.724% and 102.178% and 97.9576%
same,"Percent insulin remaining, Mean",[1]; t 1 d,102.0%
same,Percent insulin remaining,[1]; t 1 d,95.514% and 88.3018% and 126.115% and 98.0694%
same,"Percent insulin remaining, Mean",[1]; t 2 d,97.0%
same,Percent insulin remaining,[1]; t 2 d,100.082% and 83.3067% and 102.861% and 101.75%
same,"Percent insulin remaining, Mean",[1]; t 3 d,91.0%
same,Percent insulin remaining,[1]; t 3 d,84.576% and 69.9969% and 96.4916% and 112.935%
same,"Percent insulin remaining, Mean",[1]; t 4 d,96.0%
same,Percent insulin remaining,[1]; t 4 d,100.148% and 97.4317% and 103.413% and 83.0078%
same,hydroxyproline levels secreted into the medium,"[2]; 100 μM P12-3A, 100 nM insulin, 4 days",~ 4.6 times that secreted by untreated cells
same,"Hydroxyproline, Mean","[2]; from standard curve, N 4",0.989 ug/well
same,Hydroxyproline,"[2]; from standard curve, individual replicates",0.7793 ug/well and 1.026 ug/well and 0.6312 ug/well and 1.309 ug/well
same,"Hydroxyproline, Normalized, Mean","[2]; normalized to control mean (1.000), N 4",4.585
same,"Hydroxyproline, Normalized","[2]; normalized to control mean (1.000), individual replicates",3.613 and 4.758 and 2.926 and 6.069
same,"Hydroxyproline quantification, OD560","[2]; raw OD560, individual replicates",0.849 and 1.1137 and 0.6903 and 1.4165
same,"% activity relative to DMSO-only controls, Mean",[3]; MMP-1,87%
same,"% activity relative to DMSO-only controls, single runs",[3]; MMP-1,105.8321% and 102.1980% and 83.6377% and 95.1040% and 96.8615% and 66.9344% and 67.7846% and 75.7623%
same,"% activity relative to DMSO-only controls, Mean",[3]; MMP-2,101%
same,"% activity relative to DMSO-only controls, single runs",[3]; MMP-2,134.1641% and 93.5356% and 119.9423% and 88.3713% and 112.6968% and 77.2842% and 100.8622% and 77.2868%
same,"% activity relative to DMSO-only controls, Mean",[3]; MMP-3,93%
same,"% activity relative to DMSO-only controls, single runs",[3]; MMP-3,94.6432% and 93.2955% and 89.9170% and 91.8916% and 91.6457% and 97.0044% and 92.2721% and 90.5895%
same,"% activity relative to DMSO-only controls, Mean",[3]; MMP-8,114%
same,"% activity relative to DMSO-only controls, single runs",[3]; MMP-8,99.7304% and 123.9354% and 116.1961% and 104.6766% and 117.7573% and 98.6189% and 113.4567% and 134.2719%
same,"% activity relative to DMSO-only controls, Mean",[3]; MMP-9,96%
same,"% activity relative to DMSO-only controls, single runs",[3]; MMP-9,99.3059% and 91.4690% and 98.9883% and 93.1451% and 94.2109% and 106.2066% and 100.0306% and 85.1586%
same,"% activity relative to DMSO-only controls, Mean",[3]; MMP-12,89%
same,"% activity relative to DMSO-only controls, single runs",[3]; MMP-12,81.7387% and 84.5842% and 96.0954% and 81.6283% and 94.7460% and 96.1245% and 93.1866% and 82.8317%
same,"% activity relative to DMSO-only controls, Mean",[3]; MMP-13,97%
same,"% activity relative to DMSO-only controls, single runs",[3]; MMP-13,85.9593% and 124.8564% and 91.0861% and 131.0115% and 78.1511% and 84.2743% and 87.8510% and 91.4553%
same,"% activity relative to DMSO-only controls, Mean",[3]; MMP-14,117%
same,"% activity relative to DMSO-only controls, single runs",[3]; MMP-14,110.7407% and 115.7751% and 123.1998% and 129.5171% and 110.1580% and 106.8971% and 114.7013% and 125.4828%
same,"% activity relative to DMSO-only controls, Mean",[3]; MMP-19,92%
same,"% activity relative to DMSO-only controls, single runs",[3]; MMP-19,98.6000% and 87.1925% and 92.0753% and 96.2890% and 86.4215% and 92.6495% and 89.4846% and 96.8071%
same,inhibition against 15 different proteases,15 different proteases,essentially no inhibition
